Where “and” joins values, the source holds several entries; their conditions need not be identical. Equal entries are not always repeated.
What was measured:
KEAP1 Kelch domain = target: T1, KEAP1 Kelch domain (Homo sapiens, UniProt Q14145); assay: Fluorescence polarization counter-screen, KEAP1 with TAMRA-NRF2 peptide; type: binding; settings: for Fluorescence polarization signal: KEAP1, replicate wells; for inhibitory effect in the KEAP1 counter-screening assay: concentrations less than 20 µM; for EC50: in figure
T1 construct: HIS6 (N); made in house; host or cells: Escherichia coli BL21(DE3)

KLHDC2 = target: T2, KLHDC2 (Homo sapiens, UniProt Q9Y2U9); assay: Surface plasmon resonance direct binding to immobilized KLHDC2; settings: read-out: KLHDC2 Kd (SPR)
T2 sequence (Q9Y2U9 1-362): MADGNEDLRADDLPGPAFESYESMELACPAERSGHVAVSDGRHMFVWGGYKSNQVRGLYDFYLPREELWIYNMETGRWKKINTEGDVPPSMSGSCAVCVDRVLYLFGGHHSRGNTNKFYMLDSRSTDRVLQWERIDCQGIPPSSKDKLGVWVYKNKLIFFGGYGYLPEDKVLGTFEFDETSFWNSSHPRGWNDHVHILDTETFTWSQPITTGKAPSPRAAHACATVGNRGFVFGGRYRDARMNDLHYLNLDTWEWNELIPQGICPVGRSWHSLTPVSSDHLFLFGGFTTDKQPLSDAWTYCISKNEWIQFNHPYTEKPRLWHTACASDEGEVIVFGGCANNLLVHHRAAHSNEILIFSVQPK

GST-tagged KLHDC2 = target: T3, GST-tagged KLHDC2 (Homo sapiens, UniProt Q9Y2U9); assay: Fluorescence polarization competition assay, KLHDC2 with TAMRA-SelK peptide (384-well); settings: for Fluorescence polarization signal: KLHDC2, replicate wells
T3 sequence (Q9Y2U9 1-362): T2 sequence (Q9Y2U9 1-362)

T1 sequence (Q14145 321-609 limits assumed): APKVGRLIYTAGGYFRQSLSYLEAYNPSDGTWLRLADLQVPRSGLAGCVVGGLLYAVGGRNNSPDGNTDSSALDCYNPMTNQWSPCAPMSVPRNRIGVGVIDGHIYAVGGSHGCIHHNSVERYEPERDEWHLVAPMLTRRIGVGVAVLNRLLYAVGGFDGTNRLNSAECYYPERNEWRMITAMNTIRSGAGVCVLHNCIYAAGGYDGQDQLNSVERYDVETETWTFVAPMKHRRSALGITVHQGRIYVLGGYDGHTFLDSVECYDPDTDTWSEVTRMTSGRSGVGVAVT

| Fluorescence polarization signal (KEAP1 Kelch domain; 0.169351 nM) | Fluorescence polarization signal (KEAP1 Kelch domain; 0.508053 nM) | Fluorescence polarization signal (KEAP1 Kelch domain; 1.52416 nM) | Fluorescence polarization signal (KEAP1 Kelch domain; 4.57247 nM) | Fluorescence polarization signal (KEAP1 Kelch domain; 13.7174 nM) | Fluorescence polarization signal (KEAP1 Kelch domain; 41.1523 nM) | Fluorescence polarization signal (KEAP1 Kelch domain; 123.457 nM) | Fluorescence polarization signal (KEAP1 Kelch domain; 370.37 nM) | Fluorescence polarization signal (KEAP1 Kelch domain; 1111.11 nM) | Fluorescence polarization signal (KEAP1 Kelch domain; 3333.33 nM) | Fluorescence polarization signal (KEAP1 Kelch domain; 10000 nM) | inhibitory effect in the KEAP1 counter-screening assay (KEAP1 Kelch domain) | EC50 (KEAP1 Kelch domain) [nM] | Kd (KLHDC2) | EC50 (GST-tagged KLHDC2) [nM] | IC50 (GST-tagged KLHDC2) [nM] | Fluorescence polarization signal (GST-tagged KLHDC2; 0.169351 nM) | Fluorescence polarization signal (GST-tagged KLHDC2; 0.508053 nM) | Fluorescence polarization signal (GST-tagged KLHDC2; 1.52416 nM) | Fluorescence polarization signal (GST-tagged KLHDC2; 4.57247 nM) | SMILES | further results |
| --- | --- | --- | --- | --- | --- | --- | --- | --- | --- | --- | --- | --- | --- | --- | --- | --- | --- | --- | --- | --- | --- |
| 15.2 and 20.2 and 9.533 | 11.1 and 15.1 and 18.7 | 20.7 and 19.8 (2×) | 27.1 and 18.2 and 28.2 | 24.4 and 19.1 and 17 | 12.2 and 19.5 and 19.8 | 21.2 and 18.9 and 16.3 | 24.1 and 16.2 and 17.6 | 21.2 and 15.6 and 17.3 | 8.697 and 21.8 and 19.7 | 14.9 and 22.1 and 19.3 | did not have an inhibitory effect | > 20000 | 810 nM and 809 nM | 2500 | 2500 | 0.6958 and 5.527 and -6.154 | 0.1958 and 5.927 and -4.854 | -13.1042 and -0.4734 and -3.754 | 1.996 and -1.273 and -4.954 | COc1ccc(C2CC(c3cccc(F)c3)Nc3c(C(=O)O)cc(Br)cc32)cc1OC (stereo not drawn) [compound 1] | Fluorescence polarization signal (GST-tagged KLHDC2; 13.7174 nM): 2.396 and 3.527 and -0.6542; Fluorescence polarization signal (GST-tagged KLHDC2; 41.1523 nM): 2.696 and 0.3828 and -2.854; Fluorescence polarization signal (GST-tagged KLHDC2; 123.457 nM): -3.504 and -5.782 and -9.454; Fluorescence polarization signal (GST-tagged KLHDC2; 370.37 nM): -4.604 and 3.827 and -2.854; Fluorescence polarization signal (GST-tagged KLHDC2; 1111.11 nM): -13.7042 and -3.373 and -3.854; Fluorescence polarization signal (GST-tagged KLHDC2; 3333.33 nM): -18.1042 and -20.4734 and -17.5543; Fluorescence polarization signal (GST-tagged KLHDC2; 10000 nM): -16.9042 and -31.6734 and -31.9543 |
| 14.7 and 20.2 and 14.4 | 10.4 and 15.1 and 11.1 | 17 and 19.8 and 20.3 | 20.3 and 18.2 and 19.6 | 18.8 and 19.1 and 18 | 21.6 and 19.5 and 32 | 24.5 and 18.9 and 12.1 | 22.6 and 16.2 and 24.9 | 20.2 and 15.6 and 21 | 14.8 and 21.8 and 27 | 17.3 and 22.1 and 15.2 | did not have an inhibitory effect | > 20000 | 440 nM and 443 nM | 1270 | 1300 | -6.704 and 3.427 and -1.254 | -10.2042 and 5.927 and -5.854 | -0.3042 and -6.173 and -5.554 | 3.896 and 7.124 and -7.354 | Cc1ccc(C)c(C2Nc3c(C(=O)O)cc(Cl)cc3C3C4CCC(C4)C23)c1 (stereo not drawn) [compound 2] | Fluorescence polarization signal (GST-tagged KLHDC2; 13.7174 nM): 2.496 and 7.927 and -2.554; Fluorescence polarization signal (GST-tagged KLHDC2; 41.1523 nM): 1.996 and 10.1266 and 8.192; Fluorescence polarization signal (GST-tagged KLHDC2; 123.457 nM): -3.304 and -7.673 and -6.554; Fluorescence polarization signal (GST-tagged KLHDC2; 370.37 nM): -2.804 and -8.673 and -1.254; Fluorescence polarization signal (GST-tagged KLHDC2; 1111.11 nM): -10.1042 and -12.1734 and -2.854; Fluorescence polarization signal (GST-tagged KLHDC2; 3333.33 nM): -28.2042 and -24.2734 and -28.2543; Fluorescence polarization signal (GST-tagged KLHDC2; 10000 nM): -26.0042 and -23.7734 and -24.4543 |

From PMC12169847, “Targeted protein degradation by KLHDC2 ligands identified by high-throughput screening” (eLife, 2025)
